Where a chain is given by its changes, count along the chain named.
Assays:
[1] = target: T1, nanoFAST (Halorhodospira halophila, UniProt P16113, Q41K/E46Q/C69G/S72T/A84S/Y94W/T95A/F96I/D97P/Y98T/Q99S/M100R/T101G/M109L/S117R); test: spectrofluorometric titration, plate reader; format: binding; settings: PBS pH 7.4, 25 °C, 0.10 µM protein; non-covalent fluorogen
T1 construct: gene pyp; FAST (engineered PYP) lacking the first 27 residues, 98 aa; C-terminal tag of three glycines and six histidines; E. coli BL21(DE3), Ni purification
T1 sequence (P16113 28-125 Q41K/E46Q/C69G/S72T/A84S/Y94W/T95A/F96I/D97P/Y98T/Q99S/M100R/T101G/M109L/S117R): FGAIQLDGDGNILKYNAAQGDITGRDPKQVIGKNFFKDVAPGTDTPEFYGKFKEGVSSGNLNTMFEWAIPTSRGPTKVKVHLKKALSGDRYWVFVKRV
Source text: spectrofluorometric titration, plate reader on nanoFAST

[2] = target: T2, nanoFAST (Halorhodospira halophila, UniProt P16113, C69G/Y94W/T95M/F96I/D97P/Y98T/Q99S/M100R/T101G); test: fluorescence enhancement screen, plate reader; format: binding; settings: PBS pH 7.4, 10 µM fluorogen, 1 µM protein
T2 construct: gene pyp; FAST (engineered PYP) lacking the first 27 residues, 98 aa; C-terminal tag of three glycines and six histidines; E. coli BL21(DE3), Ni purification
T2 sequence (P16113 28-125 C69G/Y94W/T95M/F96I/D97P/Y98T/Q99S/M100R/T101G): T1 sequence (P16113 28-125 Q41K/E46Q/C69G/S72T/A84S/Y94W/T95A/F96I/D97P/Y98T/Q99S/M100R/T101G/M109L/S117R) with K14Q, Q19E, T45S, S57A, A68M, L82M, R90S

SMILES | Kd [1] | fluorescence enhancement screen, plate reader [2]
Cc1cc(/C=C2\SC(=S)NC2=O)c(C)cc1O [HBR-2,5-DM] | 0.5 ± 0.16 µM | –
COc1cc(/C=C2\SC(=S)NC2=O)c(OC)cc1O [HBR-DOM2, 2,5-dimethoxy-4-hydroxy-arylidene-rhodanine] | 0.13 ± 0.01 µM | significant decrease in fluorescence enhancement with the previously proposed fluorogen of the nanoFAST protein
COc1cc(/C=C2\SC(=S)NC2=O)cc(OC)c1O [HBR-DOM] | 1.69 ± 0.32 µM | –

Reference: paper PMC10931682, “A Combination of Library Screening and Rational Mutagenesis Expands the Available Color Palette of the Smallest Fluorogen-Activating Protein Tag nanoFAST” (International Journal of Molecular Sciences, 2024)
